Substitutions are numbered along the chain they refer to.
Experiments:
FicD^L258D = molecular target: T1, FicD^L258D (Homo sapiens, UniProt Q9BVA6, L258D); assay: Isothermal titration calorimetry (ITC) with Δ104hFicD^L258D; type: binding; settings: 4 mM MgCl2
T1 construct: soluble ER luminal domain (residues 105 to 458) of wild-type human FicD and three mutants; 6xHis-Sumo (N, cleaved yes); made in house; host or cells: Rosetta(DE3) E. coli
T1 sequence (Q9BVA6 105-458 L258D): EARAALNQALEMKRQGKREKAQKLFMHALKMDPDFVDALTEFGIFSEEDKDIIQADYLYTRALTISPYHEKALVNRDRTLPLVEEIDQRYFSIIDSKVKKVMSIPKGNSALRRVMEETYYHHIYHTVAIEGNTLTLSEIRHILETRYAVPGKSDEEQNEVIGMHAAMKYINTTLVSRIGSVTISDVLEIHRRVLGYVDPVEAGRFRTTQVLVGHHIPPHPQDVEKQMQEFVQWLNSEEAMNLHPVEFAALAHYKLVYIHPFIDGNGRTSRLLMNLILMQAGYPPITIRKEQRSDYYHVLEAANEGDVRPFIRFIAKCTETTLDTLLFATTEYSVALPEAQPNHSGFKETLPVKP
Text: To further support this notion, we used Isothermal Titration Calorimetry (ITC) to determine the Kd of FPP binding. […] In these experiments, the interaction between FPP and Mg^2+ generated endothermic peaks that interfered with detecting the interaction between FPP, Mg^2+, and FicD (Fig. 3, Upper). The stoichiometry of FPP binding to FicD was consistently <0.85, which may indicate that Mg^2+ was not saturating. Because the endothermic interaction between Mg^2+ and FPP limited the quantity of MgCl2 we could add, the measured Kd could be larger than the true value.
Fig. 3. ITC with FicD and Farnesyl-pyrophosphate. Representative ITC thermogram for FPP binding to Δ104hFicD^L258D (Upper). […] Dissociation constants (Kd) of individual replicates and global fitting of triplicate isotherms are reported with 1σ error intervals in parenthesis. TEXT PRINTED IN THE PICTURE: no label printed: Kd (nM): 32.3 (15.6, 54.9) (Replicate 1); Kd (nM): 25.6 (10.1, 47.7) (Replicate 2); Kd (nM): 45.2 (29.4, 68.8) (Replicate 3); Kd (nM): 60.3 (23.1, 126.3) (Global) DOUBTS OF THE COPYIST ABOUT THIS PICTURE: The picture prints no substance label; the table rows are replicates and a global fit of one measurement, so all four Kd values are given under one unlabeled substance. […]
Isothermal Titration Calorimetry
Proteins were dialyzed against 25mM HEPES pH 7.4/100mM KCl/10% glycerol prior to titration.
Dialyzed proteins were then spun down at 21,000G for 15 minutes at 4C to remove trace insoluble material. The protein concentration was measured spectrophotometrically and then diluted to working concentration with 25mM HEPES pH 7.4/100mM KCl/10% glycerol. MgCl2 was added to proteins to a final concentration of 4mM. ITC experiments were performed in a Micro-Cal PEAQ-ITC (Malvern Panalytical, Worcestershire, UK) calorimeter with a stirred 206.2 μL reaction cell held at 20 °C. 250μM FPP was titrated into 25uM Δ104hFicL258D with 750rpm stirring. The first injection was 0.5 μL, followed by twenty 1.9 μL injections. ITC data were integrated and baseline corrected using NITPIC 2.1.5 (10, 11). Integrated data was globally analyzed in SEDPHAT 15.b (12) using a model considering a single class of binding sites. […]
10% Lithium dodecyl sulfate, 50% glycerol, 50mM DTT, 0.05% Bromophenol blue) and then heated […]
For deAMPylation assays with FicD and BiP, Δ26hBiPT229A was in-vitro AMPylated by […]
5mM MgCl2, 500uM ATP, 0.5% CHAPS, 1mM DTT. After one hour of incubation at 30-37C, the entire reaction mix was transferred into an Amicon 0.5mL 50kDa MWCO concentrator (cat no.
7.4/150mM NaCl/10% glycerol/1mM DTT was added to the concentrated AMPylation reaction and then spun down again at 14,000 x g at 4C for 5-10 minutes. This step was repeated four times to buffer exchange AMPylated Δ26hBiPT229A.
Δ104hFicDWT and Δ26hBiPT229A-AMP were combined at a ratio of 1:80 in buffer containing 25mM HEPES pH 7.4, 100mM KCl, 5mM MgCl2, 1mM DTT and the indicated small molecule where applicable. Reactions were incubated at 37C for 1 hour and stopped by the addition EDTA. 5X SDS sample buffer (250mM Tris pH 6.8, 10% Lithium dodecyl sulfate, 50% glycerol, 50mM DTT, 0.05% Bromophenol blue) was then added to the reactions and reactions were heated for 5 minutes at […]
For in-vitro AMPylation assays with VopS and CDC42, Δ30VopS and GST-CDC42 – provided by a previous lab member – were combined at a 1:80 molar ratio in 50mM Tris pH 7.4/100mM NaCl/1mM DTT in the presence of GPP or FPP, where applicable. […]

FicD^R374H = molecular target: T2, FicD^R374H (Homo sapiens, UniProt Q9BVA6, R374H); assay: DSF with FicD^R374H variant; type: binding
T2 construct: Wild-type FicD (residues 105-458) and all mutants were expressed as N-terminal 6xHis-Sumo fusions; 6xHis-Sumo (N, cleaved yes); made in house; host or cells: Rosetta(DE3) E. coli
T2 sequence (Q9BVA6 105-458 R374H): T1 sequence (Q9BVA6 105-458 L258D) with D154L, R270H

`CC(C)=CCC/C(C)=C/CC/C(C)=C/COP(=O)(O)OP(=O)(O)O` [FPP, farnesyl-pyrophosphate] was tested, and the “stoichiometry of binding to FicD (ITC)” value (FicD^L258D) was < 0.85, the “binding to R374H variant by DSF (melting curve shift)” value (FicD^R374H; absence of Mg2+) was “caused shifts in the melting curves” and the “binding to R374H variant by DSF (melting curve shift)” value (FicD^R374H; addition of Mg2+) was “enhanced the binding”.

— PMC12974487, “Inhibition of FicD-mediated AMPylation and deAMPylation by isoprenoid diphosphates” (Proceedings of the National Academy of Sciences of the …, 2026)
